Data published in US12145923B2, “Tetrahydroisoquinoline compound, preparation method therefor, pharmaceutical composition containing same, and use thereof” (SHANGHAI INSTITUTE OF MATERIA MEDICA, CHINESE ACADEMY OF …, priority 2018, dated 2024).
pIC50: −log10 of the molar value. Read-outs that look alike come from different tables or passages of the source. Each block holds one compound with its values, some of them ahead of it.

How the values were obtained:
[1] = biological target: Human PDE4D catalytic domain (Homo sapiens (Human), UniProt Q08499); assay: Scintillation Proximity Assay (SPA), inhibition of PDE4D catalytic domain activity; type: biochemical; conditions: for inhibition at 1 µM: read-out: PDE4D enzyme activity inhibition rate %
Human PDE4D catalytic domain, sequence (Q08499 386-715): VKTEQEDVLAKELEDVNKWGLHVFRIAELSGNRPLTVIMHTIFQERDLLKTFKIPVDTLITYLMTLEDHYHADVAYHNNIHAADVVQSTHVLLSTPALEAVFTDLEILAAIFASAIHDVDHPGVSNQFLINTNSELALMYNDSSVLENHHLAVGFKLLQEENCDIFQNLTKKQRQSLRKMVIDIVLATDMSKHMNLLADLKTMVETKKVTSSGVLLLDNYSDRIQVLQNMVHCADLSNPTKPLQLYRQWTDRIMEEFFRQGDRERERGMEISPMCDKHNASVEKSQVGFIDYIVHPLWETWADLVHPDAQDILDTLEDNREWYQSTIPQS
Procedure: The scintillation Proximity Assay (SPA) method was used to determine the inhibitory effect of compounds on the activity of PDE4D catalytic domain. Human PDE4D catalytic domain protein was obtained by expression and purification in E. coli. […] [^3H]-cAMP, scintillation beads (RPNQO150, Perkin Elmer), and 96-well scintillation microplates (Isoplate-96, Perkin Elmer) were purchased from Perkin Elmer Company.
Finally, 10 μl [^3H]-cAMP (0.005 μCi/μl) was added and incubated for 30 min at 30° C. in a water bath. 50 μl SPA beads was added to quench the reaction, shaked appropriately, and stood for 20 minutes. A microplate scintillation counter was used.

TNF-α secretion in PBMC = assay: Inhibition of LPS-stimulated TNF-α secretion in PBMC (ELISA); type: cell-based; conditions: Homo sapiens; for inhibition at 1 µM / inhibition at 10 µM: read-out: Inhibition rate %
Source text: According to the difference in cell density in human blood, PBMC (peripheral blood mononuclear cell, PBMC) was directly separated and purified by gradient centrifugation using lymphocyte separation fluid. The cell type was mononuclear cells in blood, mainly including lymphocytes (T/B), monocytes, macrophages, dendritic cells and other minor cell types, of which lymphocytes account for a large part, which can directly in vitro simulate the blood immune environment.
PBMC cells isolated from human blood were implanted into 96-well plates at 2*10^5/ml; compounds in gradients were added, with at least three replicates for each gradient; After the PBMCs were incubated at 37° C., 5% CO2 for 1 hour, LPS was added (the final concentration was 10 ug/ml) to stimulate PBMC to express TNF-α, and incubated for another 18-20 h at 37° C., 5% C02. The 96-well plate was collected. The background control with no stimulant and stimulation control wells were also set, with a total volume of 200 μl. The culture supernatant was collected by centrifugation, and the expression level of TNF-α in the culture supernatant was detected by ELISA.

[2] = Cytotoxicity on RAW 264.7 cells (CCK-8 method); type: cell-based, mouse; conditions: mouse, RAW 264.7 cells; drug concentration required to cause median cytotoxicity, RAW 264.7
Procedure: (§1) Mouse RAW 264.7 cells were purchased from American Type Culture Collection (Manassas, VA, USA), and cultivated in DMEM culture medium (Hyclone, South Logan, UT, USA) containing 10% fetal bovine serum (Hyclone, South Logan, UT, USA). Cells were collected and counted before use, and inoculated in a 96-well plate (Corning, NY, USA) at 1×10^5/well. […] 20 μl of CCK-8 solution (Dojindo, Kumamoto, Japan) was added at 30 min before the end of the culture. After the cultivation was ended, the absorbance OD value was measured at 450 nm (reference 650 nm) on amicroplate reader (Molecular Devices, Sunnyvale, CA, USA). The toxicity of the compound on RAW 264.7 cells was calculated by dividing the OD value of the test sample by the OD value of the cell control well, which was labeled as the cell survival rate M %.

RAW 264.7 cells = assay: Cytotoxicity on RAW 264.7 cells (CCK-8 method); type: cell-based, mouse
Procedure: as §1

[3] = system: tumor necrosis factor-α secretion in RAW 264.7 cells; assay: Inhibition of LPS-stimulated tumor necrosis factor-α secretion in RAW 264.7 cells (ELISA); type: cell-based, mouse; conditions: for inhibition at 0.5 µM / inhibition at 5 µM / inhibition at 50 µM / pIC50: Mus musculus; for inhibition at 0.5 µM / inhibition at 5 µM / inhibition at 50 µM: RAW264.7, 4 h, read-out: Tumor necrosis factor-α inhibition rate/%; for pIC50: RAW264.7
Procedure: After the activation by bacterial lipopolysaccharide (LPS), various inflammatory mediators such as tumor necrosis factor-α will be released; Phosphodiesterase PDE4 is also expressed in macrophages, and the inhibitory activity of the compound on phosphodiesterase PDE4 can be reflected by detecting the secretion of tumor necrosis factor-α.
Under the stimulation of 1 μg/ml LPS (L5886, Sigma, St. Louis, MO, USA), the cells were cultured in a 37° C., 5% CO2 incubator for 4 h. The background control with no stimulant and stimulation control wells were also set, with a total volume of 200 μl. The culture supernatant was collected by centrifugation, and the secretion level of tumor necrosis factor-α in the culture supernatant was detected by enzyme-linked immunosorbent assay. The tumor necrosis factor-α detection kit was purchased from BD Pharmingen (San Diego, CA, USA).

[4] = system: acute inflammation model of mouse back air sac; assay: Acute inflammation model of mouse back air sac (carrageenan); type: in vivo; conditions: oral gavage 5 mg/kg
Procedure: On the first day of the experiment, mice were subcutaneously injected with 3 ml of air on the back, and subcutaneously injected with 1.5 ml of air on the back on day 3, and subcutaneously injected with 1 ml of 2% carrageenan (Sigma-Aldrich, St. Louis, MO, USA) on the back on day 6 for sensitization. 4 hours after sensitization, secretion in the air sac was lavaged with phosphate buffer solution. The lavage fluid was used for white blood cell count and inflammatory factor detection. […] Tumor necrosis factor-α and interleukin-6 detection kits were purchased from BD Pharmingen (San Diego, CA, USA).

Rat pharmacokinetic test = type: in vivo
Procedure: Six male healthy rats weighing 150-200 g were randomly divided into 2 groups (n=3). Compounds 14, 16, 17, 18, 22 and 29 of the present invention were administered by gavage and intravenous injection, respectively, at a administration volume of 10 mL/kg. The drug was formulated with DMSO/Tween 80/saline solution (5:5:90, v/v/v). The rats were fasted for 12 h before testing, water ad lib, and uniformly feeded 2 h after administration.
gavage administration: 0.25, 0.5, 1.0, 2.0, 4.0, 6.0, 8.0 and 24 h after administration:
intravenous administration: 5 min, 0.25, 0.5, 1.0, 2.0, 4.0, 6.0, 8.0 and 24 h after administration;
0.3 mL of venous blood was collected at the above time points via the rat eye vein venous plexus, placed in heparinized test tube, centrifuged at 11000 rpm for 5 min. Plasma was separated and frozed in a −20° C. refrigerator.
The concentration of compounds in rat plasma was determined by LC/MS/MS. The pharmacokinetic parameters after administration were calculated by a non-compartmental model of DAS 3.0 software.

[5] = Beagle dog pharmacokinetic test; type: in vivo
Procedure: Six male healthy beagle dogs weighing 9-11 kg were randomly divided into 2 groups (n=3). The compound (S)-C8 of the present invention was administered by gavage administration and intravenous injection, respectively, and the administration volume was 5 mL/kg and 1 mL/kg, respectively. The gavage administration was formulated with 0.5% CMC-Na+0.25% Tween 80, and intravenous administration was formulated with 5% DMSO/40% PEG400/55% saline.
• gavage administration: 0.25, 0.5, 1.0, 2.0, 4.0, 6.0, 8.0 and 24 h after administration; • intravenous administration: 5 min, 0.25, 0.5, 1.0, 2.0, 4.0, 6.0, 8.0 and 24 h after administration; • 1 ml of venous blood was taken at the above time points from the veins of the extremities, placed in an EDTA-2K anticoagulation tube, and centrifuged at 3500 rpm for 10 minutes. Plasma was separated, and frozen in a −20° C. refrigerator. 3. Sample Testing and Data Analysis
The concentration of compound (S)-C8 in Beagle dog plasma was determined by LC/MS/MS.
The pharmacokinetic parameters after administration were calculated by a non-compartmental model of Phoenix 1.3 software (Pharsight, USA).

[6] = male, plasma, intravenous injection, 10 mg/kg
[7] = male, plasma, po, gavage, 20 mg/kg
[8] = male, plasma, intravenous injection, 3 mg/kg
[9] = male, plasma, po, gavage, 10 mg/kg

Compound: CCOc1cc2c(cc1OC)CCN(C=O)[C@H]2CCc1c[nH]c2ccc(OC)cc12 [(S)-C8, (S)-7-ethoxy-6-methoxy-1-(2-(5-methoxy-1H-indol-3-yl)ethyl)-3,4-dihydroisoquinoline-2(1H)-formaldehyde]
inhibition at 1 µM ([1]; Compound concentration: 1 μM): 95%
IC50 ([1]; PDE4D, unit given as mM, read-out: IC50): 80 nM
pIC50 ([1]; read-out: IC50 value of PDE4 inhibitory activity): > 7.00
inhibition at 1 µM (TNF-α secretion in PBMC; TNF-α secretion in PBMC, 1 μM): 79.7%
inhibition at 10 µM (TNF-α secretion in PBMC; TNF-α secretion in PBMC, 10 μM): 86.8%
pIC50 (TNF-α secretion in PBMC; TNF-α secretion in PBMC, read-out: IC50): 7.59
pIC50 (TNF-α secretion in PBMC; TNF-α secretion in PBMC, read-out: IC50 value): 7.59
CC50 at 4 h [2]: > 50000 nM
Cell survival rate/% (RAW 264.7 cells; RAW 264.7, 0.5 μM): 89.2%
Cell survival rate/% (RAW 264.7 cells; RAW 264.7, 5 μM): 96.1%
Cell survival rate/% (RAW 264.7 cells; RAW 264.7, 50 μM): 93.8%
inhibition at 0.5 µM ([3]; RAW 264.7, 0.5 μM): -6%
inhibition at 5 µM ([3]; RAW 264.7, 5 μM): 60.4%
inhibition at 50 µM ([3]; RAW 264.7, 50 μM): 58.1%
pIC50 ([3]; RAW 264.7): 5.72
inhibitory activity on tumor necrosis factor-α compared with the positive compound Apremilast ([3]; RAW 264.7): comparable or stronger
number of leukocyte infiltration ([4]; air sac lavage): reduce
secretion level of interleukin-6 in lavage [4]: reduce
secretion level of tumor necrosis factor-α in lavage [4]: reduce
inflammatory response ([4]; 24 h and 1 h before sensitization): significantly reduce
AUC0-t (Rat pharmacokinetic test; gavage, 20 mg/kg): 491 ng·h/mL
t1/2 (Rat pharmacokinetic test; gavage, 20 mg/kg): 1.03 h
AUC0-t (Rat pharmacokinetic test; intravenous injection, 10 mg/kg): 2640 ng·h/mL
AUC(0-inf) (Rat pharmacokinetic test; [6]): 2640 ng·h/mL
MRT (Rat pharmacokinetic test; [6]): 0.544 h
half-life (Rat pharmacokinetic test; [6]): 0.707 h
Vd (Rat pharmacokinetic test; male, plasma, intravenous injection, 10 mg/kg, read-out: Vss): 2.1 L/kg
AUC0-t (Rat pharmacokinetic test; male, plasma, iv, 10 mg/kg, intravenous injection, 10 mg/kg, read-out: AUC0-t): 2640 ng·h/mL
bioavailability (Rat pharmacokinetic test; male, plasma, oral, gavage 20 mg/kg vs intravenous 10 mg/kg, dosage standardized, read-out: F (absolute bioavailability)): 9.3%
AUC0-t (Rat pharmacokinetic test; male, plasma, po, 20 mg/kg, gavage, 20 mg/kg, read-out: AUC0-t): 508 ng·h/mL
AUC(0-inf) (Rat pharmacokinetic test; [7]): 508 ng·h/mL
MRT (Rat pharmacokinetic test; [7]): 2 h
Tmax (Rat pharmacokinetic test; [7]): 1.33 h
half-life (Rat pharmacokinetic test; [7]): 1.03 h
AUC0-t ([5]; gavage, 10 mg/kg): 16601 ng·h/mL
t1/2 ([5]; gavage, 10 mg/kg): 2.92 h
AUC0-t ([5]; intravenous injection, 3 mg/kg): 9610 ng·h/mL
AUC(0-inf) [5, 8]: 9800 ng·h/mL
MRT [5, 8]: 2.37 h
half-life [5, 8]: 1.96 h
AUC0-t ([5]; male, plasma, intravenous injection, 3 mg/kg, read-out: AUC0-t): 9610 ng·h/mL
Vd ([5]; male, plasma, intravenous injection, 3 mg/kg, read-out: Vss): 0.96 L/kg
bioavailability ([5]; male, plasma, oral, gavage 10 mg/kg vs intravenous 3 mg/kg, dosage standardized, read-out: F (absolute bioavailability)): 52.3%
Cmax [5, 9]: 4680 ng/mL
MRT [5, 9]: 3.61 h
Tmax [5, 9]: 0.5 h
half-life [5, 9]: 2.92 h
AUC0-t ([5]; male, plasma, po, gavage, 10 mg/kg, read-out: AUC0-t): 16600 ng·h/mL

Compound: CCOc1cc([C@@H](CS(C)(=O)=O)N2C(=O)c3cccc(NC(C)=O)c3C2=O)ccc1OC [Apremilast, reference compound]
CC50 at 4 h [2]: > 10000 nM
pIC50 ([3]; RAW 264.7): 5.38

Compound: COc1cc2c(cc1OC1CCCC1)C(CCc1c[nH]c3ccc(Br)cc13)N(C=O)CC2 (centres unmarked) [Compound C1, 1-(2-(5-bromo-1H-indol-3-yl)ethyl)-7-(cyclopentyloxy)-6-methoxy-3,4-dihydroisoquinoline-2(1H)-formaldehyde]
pIC50 [1]: 5.82
inhibition at 1 µM [1]: 26.4%
inhibition at 1 µM (TNF-α secretion in PBMC; PBMC): 27.1%
inhibition at 10 µM (TNF-α secretion in PBMC; PBMC): 72.4%
Cell survival rate/% (RAW 264.7 cells; RAW 264.7, 0.5 μM): 100.9%
Cell survival rate/% (RAW 264.7 cells; RAW 264.7, 5 μM): 125.1%
Cell survival rate/% (RAW 264.7 cells; RAW 264.7, 50 μM): 110.5%
inhibition at 0.5 µM [3]: 2.8%
inhibition at 5 µM [3]: -5.2%
inhibition at 50 µM [3]: 33.7%

Further lines, with some results ahead:

inhibition at 1 µM ([1]; Compound concentration: 1 μM): 21.5%
Compound: COc1cc2c(cc1OC1CCCC1)C(CCc1c[nH]c3ccc(C)cc13)N(C=O)CC2 (centres unmarked) [Compound C2, 7-(cyclopentyloxy)-6-methoxy-1-(2-(5-methyl-1H-indol-3-yl)ethyl)-3,4-dihydroisoquinoline-2(1H)-formaldehyde]
inhibition at 1 µM (TNF-α secretion in PBMC; TNF-α secretion in PBMC, 1 μM): 15.8%
inhibition at 10 µM (TNF-α secretion in PBMC; TNF-α secretion in PBMC, 10 μM): 52.4%
Cell survival rate/% (RAW 264.7 cells; RAW 264.7, 0.5 μM): 112.4%
Cell survival rate/% (RAW 264.7 cells; RAW 264.7, 5 μM): 106.3%
Cell survival rate/% (RAW 264.7 cells; RAW 264.7, 50 μM): 62.7%
inhibition at 0.5 µM ([3]; RAW 264.7, 0.5 μM): -18.2%
inhibition at 5 µM ([3]; RAW 264.7, 5 μM): -24.5%
inhibition at 50 µM ([3]; RAW 264.7, 50 μM): 97.2%

inhibition at 1 µM ([1]; Compound concentration: 1 μM): 6.4%
Compound: COc1cc2c(cc1OC1CCCC1)C(CCc1c[nH]c3cc(C)ccc13)N(C=O)CC2 (centres unmarked) [Compound C3, 7-(cyclopentyloxy)-6-methoxy-1-(2-(6-methyl-1H-indol-3-yl)ethyl)-3,4-dihydroisoquinoline-2(1H)-formaldehyde]
inhibition at 10 µM (TNF-α secretion in PBMC; TNF-α secretion in PBMC, 10 μM): 36.4%
Cell survival rate/% (RAW 264.7 cells; RAW 264.7, 0.5 μM): 115.1%
Cell survival rate/% (RAW 264.7 cells; RAW 264.7, 5 μM): 120.5%
Cell survival rate/% (RAW 264.7 cells; RAW 264.7, 50 μM): 112.6%
inhibition at 0.5 µM ([3]; RAW 264.7, 0.5 μM): -0.9%
inhibition at 5 µM ([3]; RAW 264.7, 5 μM): 5.9%
inhibition at 50 µM ([3]; RAW 264.7, 50 μM): 59.7%
